Measurements: patent US20260027068A1, “METHODS OF ADM[…]-KETAMINE” (Perception Neuroscience, Inc., priority 2022, published 2026)

Assay: Oxygen saturation (pulse oximetry, SpO2)
Protocol: The Investigational Medicinal Product (IMP) R(−)-ketamine hydrochloride in sterile water for intravenous injection was investigated as an […] treatment of TRD. The International Union of Pure and Applied Chemistry (IUPAC) name is of the IMP is (2R)-2-(2-chlorophenyl)-2-(methylamino)cyclohexan-1-one. Subjects received the solution at either 30 mg or 60 mg dose, or a placebo. The IMP or placebo was administered on Day 1 as a single IV infusion via an electronic infusion pump over 40 minutes. The duration of study participation for each subject was up to 29 days including a screening period, a 3-day in-clinic visit, and 2 follow-up visits. 101 subjects were enrolled in approximately 20 study centers in the EU and the US.
Tympanic or temporal temperature, heart rate, blood pressure (SBP/DBP), respiratory rate, and SpO2 were assessed. Blood pressure and pulse measurements will be assessed with a completely automated device while the subject is supine or semi-supine. Manual techniques will be used only if an automated device is not available. Blood pressure and pulse measurements should be preceded by at least 5 minutes of rest for the subject in a quiet setting without distractions (e.g., television, cell phones). An abnormal blood pressure value at screening may be repeated once after 5 minutes of relaxation to determine the subject's eligibility. Blood pressure was recorded using the same arm and position (supine or semi-supine) throughout the study, where possible. Vital signs (to be taken before blood collection for laboratory tests) consisted of 1 pulse and 3 blood pressure measurements (3 consecutive blood pressure readings will be recorded at intervals of at least 1 minute). The average of the 3 blood pressure readings was recorded in the CRF. A pulse oximeter was used to measure peripheral capillary oxygen saturation (SpO2) continuously from pre-dose until 4-hours post-dose. A pulse oximeter was clipped onto the finger or foot of the subject, and light will be sent through the finger or foot and measured on the other side.
In these tables, baseline value is defined as the last non-missing value prior to study drug administration.

For CN[C@@]1(c2ccccc2Cl)CCCCC1=O.Cl [R(−)-ketamine, (2R)-2-(2-chlorophenyl)-2-(methylamino)cyclohexan-1-one], the “Oxygen Saturation, Max” value (30 mg, Day 1, 15 minutes) was 100%, the “Oxygen Saturation, Mean” value (30 mg, Day 1, 15 minutes) was 98.3% and the “Oxygen Saturation, Median” value (30 mg, Day 1, 15 minutes) was 98.0%. The “Oxygen Saturation, Min” value (30 mg, Day 1, 15 minutes) was 96%, the “Oxygen Saturation, Max” value (30 mg, Day 1, 40 minutes) was 99% and the “Oxygen Saturation, Mean” value (30 mg, Day 1, 40 minutes) was 98.3%. For the same compound, the “Oxygen Saturation, Median” value (30 mg, Day 1, 40 minutes) was 98.0%, the “Oxygen Saturation, Min” value (30 mg, Day 1, 40 minutes) was 96% and the “Oxygen Saturation, Max” value (30 mg, Day 1, 60 minutes) was 100%. For the same compound, the “Oxygen Saturation, Mean” value (30 mg, Day 1, 60 minutes) was 98.2%, the “Oxygen Saturation, Median” value (30 mg, Day 1, 60 minutes) was 98.0% and the “Oxygen Saturation, Min” value (30 mg, Day 1, 60 minutes) was 96%. The “Oxygen Saturation, Max” value (30 mg, Day 1, 2 hours) was 100%, the “Oxygen Saturation, Mean” value (30 mg, Day 1, 2 hours) was 98.4% and the “Oxygen Saturation, Median” value (30 mg, Day 1, 2 hours) was 99.0%. The “Oxygen Saturation, Min” value (30 mg, Day 1, 2 hours) was 97%, the “Oxygen Saturation, Max” value (30 mg, Day 1, 4 hours) was 100% and the “Oxygen Saturation, Mean” value (30 mg, Day 1, 4 hours) was 98.3%. The “Oxygen Saturation, Median” value (30 mg, Day 1, 4 hours) was 98.0%, the “Oxygen Saturation, Min” value (30 mg, Day 1, 4 hours) was 96% and the “Oxygen Saturation, Change from Baseline, Max” value (30 mg, to Day 1, 15 minutes) was 2%. The “Oxygen Saturation, Change from Baseline, Mean” value (30 mg, to Day 1, 15 minutes) was −0.3%, the “Oxygen Saturation, Change from Baseline, Median” value (30 mg, to Day 1, 15 minutes) was 0.0% and the “Oxygen Saturation, Change from Baseline, Min” value (30 mg, to Day 1, 15 minutes) was −3%. The “Oxygen Saturation, Change from Baseline, Max” value (30 mg, to Day 1, 40 minutes) was 2%, the “Oxygen Saturation, Change from Baseline, Mean” value (30 mg, to Day 1, 40 minutes) was −0.4% and the “Oxygen Saturation, Change from Baseline, Median” value (30 mg, to Day 1, 40 minutes) was 0.0%. The “Oxygen Saturation, Change from Baseline, Min” value (30 mg, to Day 1, 40 minutes) was −2%, the “Oxygen Saturation, Change from Baseline, Max” value (30 mg, to Day 1, 60 minutes) was 1% and the “Oxygen Saturation, Change from Baseline, Mean” value (30 mg, to Day 1, 60 minutes) was −0.5%. For the same compound, the “Oxygen Saturation, Change from Baseline, Median” value (30 mg, to Day 1, 60 minutes) was 0.0%, the “Oxygen Saturation, Change from Baseline, Min” value (30 mg, to Day 1, 60 minutes) was −3% and the “Oxygen Saturation, Change from Baseline, Max” value (30 mg, to Day 1, 2 hours) was 3%. The “Oxygen Saturation, Change from Baseline, Mean” value (30 mg, to Day 1, 2 hours) was −0.2%, the “Oxygen Saturation, Change from Baseline, Median” value (30 mg, to Day 1, 2 hours) was 0.0% and the “Oxygen Saturation, Change from Baseline, Min” value (30 mg, to Day 1, 2 hours) was −2%. For the same compound, the “Oxygen Saturation, Change from Baseline, Max” value (30 mg, to Day 1, 4 hours) was 3%, the “Oxygen Saturation, Change from Baseline, Mean” value (30 mg, to Day 1, 4 hours) was −0.4% and the “Oxygen Saturation, Change from Baseline, Median” value (30 mg, to Day 1, 4 hours) was 0.0%. For the same compound, the “Oxygen Saturation, Change from Baseline, Min” value (30 mg, to Day 1, 4 hours) was −3%, the “Oxygen Saturation, Max” value (60 mg, Day 1, 15 minutes) was 100% and the “Oxygen Saturation, Mean” value (60 mg, Day 1, 15 minutes) was 98.2%. For the same compound, the “Oxygen Saturation, Median” value (60 mg, Day 1, 15 minutes) was 98.0%, the “Oxygen Saturation, Min” value (60 mg, Day 1, 15 minutes) was 96% and the “Oxygen Saturation, Max” value (60 mg, Day 1, 40 minutes) was 100%. The “Oxygen Saturation, Mean” value (60 mg, Day 1, 40 minutes) was 98.1%, the “Oxygen Saturation, Median” value (60 mg, Day 1, 40 minutes) was 98.0% and the “Oxygen Saturation, Min” value (60 mg, Day 1, 40 minutes) was 95%. The “Oxygen Saturation, Max” value (60 mg, Day 1, 60 minutes) was 100%, the “Oxygen Saturation, Mean” value (60 mg, Day 1, 60 minutes) was 98.1% and the “Oxygen Saturation, Median” value (60 mg, Day 1, 60 minutes) was 98.0%. The “Oxygen Saturation, Min” value (60 mg, Day 1, 60 minutes) was 95%, the “Oxygen Saturation, Max” value (60 mg, Day 1, 2 hours) was 100% and the “Oxygen Saturation, Mean” value (60 mg, Day 1, 2 hours) was 98.2%. The “Oxygen Saturation, Median” value (60 mg, Day 1, 2 hours) was 98.0%, the “Oxygen Saturation, Min” value (60 mg, Day 1, 2 hours) was 97% and the “Oxygen Saturation, Max” value (60 mg, Day 1, 4 hours) was 100%. The “Oxygen Saturation, Mean” value (60 mg, Day 1, 4 hours) was 98.3%, the “Oxygen Saturation, Median” value (60 mg, Day 1, 4 hours) was 99.0% and the “Oxygen Saturation, Min” value (60 mg, Day 1, 4 hours) was 96%. The “Oxygen Saturation, Change from Baseline, Max” value (60 mg, to Day 1, 15 minutes) was 4%, the “Oxygen Saturation, Change from Baseline, Mean” value (60 mg, to Day 1, 15 minutes) was 0.0% and the “Oxygen Saturation, Change from Baseline, Median” value (60 mg, to Day 1, 15 minutes) was 0.0%. The “Oxygen Saturation, Change from Baseline, Min” value (60 mg, to Day 1, 15 minutes) was −2%, the “Oxygen Saturation, Change from Baseline, Max” value (60 mg, to Day 1, 40 minutes) was 2% and the “Oxygen Saturation, Change from Baseline, Mean” value (60 mg, to Day 1, 40 minutes) was −0.1%. For the same compound, the “Oxygen Saturation, Change from Baseline, Median” value (60 mg, to Day 1, 40 minutes) was 0.0%, the “Oxygen Saturation, Change from Baseline, Min” value (60 mg, to Day 1, 40 minutes) was −2% and the “Oxygen Saturation, Change from Baseline, Max” value (60 mg, to Day 1, 60 minutes) was 3%. For the same compound, the “Oxygen Saturation, Change from Baseline, Mean” value (60 mg, to Day 1, 60 minutes) was −0.1%, the “Oxygen Saturation, Change from Baseline, Median” value (60 mg, to Day 1, 60 minutes) was 0.0% and the “Oxygen Saturation, Change from Baseline, Min” value (60 mg, to Day 1, 60 minutes) was −4%. For the same compound, the “Oxygen Saturation, Change from Baseline, Max” value (60 mg, to Day 1, 2 hours) was 3%, the “Oxygen Saturation, Change from Baseline, Mean” value (60 mg, to Day 1, 2 hours) was 0.0% and the “Oxygen Saturation, Change from Baseline, Median” value (60 mg, to Day 1, 2 hours) was 0.0%. The “Oxygen Saturation, Change from Baseline, Min” value (60 mg, to Day 1, 2 hours) was −2%, the “Oxygen Saturation, Change from Baseline, Max” value (60 mg, to Day 1, 4 hours) was 1% and the “Oxygen Saturation, Change from Baseline, Mean” value (60 mg, to Day 1, 4 hours) was 0.2%. The “Oxygen Saturation, Change from Baseline, Median” value (60 mg, to Day 1, 4 hours) was 0.0% and the “Oxygen Saturation, Change from Baseline, Min” value (60 mg, to Day 1, 4 hours) was −2%.
